Data from article PMC12102759 (Protein Science : A Publication of the Protein Society, 2025).

These substances were tested on G3BP1 NFT2. Details: library DMS-BM; bait G3BP1 NFT2; prey CAPRIN1; AQMQGPYNFIQDSM(averaged): mean of the two overlapping peptides over the shared positions.
Assay type: binding, human

Substance | DMS position-specific score (PSSM value) per amino-acid substitution, averaged
AQMQGPYNFIQDSM(averaged) F9P (AQMQGPYNPIQDSM) | 0
AQMQGPYNFIQDSM(averaged) Q2M (AMMQGPYNFIQDSM) | 0.123
AQMQGPYNFIQDSM(averaged) Q2P (APMQGPYNFIQDSM) | 0.007875
AQMQGPYNFIQDSM(averaged) I10E (AQMQGPYNFEQDSM) | 0.0004486
AQMQGPYNFIQDSM(averaged) P6K (AQMQGKYNFIQDSM) | 0.01016
AQMQGPYNFIQDSM(averaged) Q4E (AQMEGPYNFIQDSM) | 0.0003947
AQMQGPYNFIQDSM(averaged) N8T (AQMQGPYTFIQDSM) | 0.1728
AQMQGPYNFIQDSM(averaged) D12Q (AQMQGPYNFIQQSM) | 0.008788
AQMQGPYNFIQDSM(averaged) Y7Q (AQMQGPQNFIQDSM) | 0.001996
AQMQGPYNFIQDSM(averaged) Q11E (AQMQGPYNFIEDSM) | 0
AQMQGPYNFIQDSM(averaged) Y7H (AQMQGPHNFIQDSM) | 0.0003057
AQMQGPYNFIQDSM(averaged) I10R (AQMQGPYNFRQDSM) | 0.001261
AQMQGPYNFIQDSM(averaged) Q2G (AGMQGPYNFIQDSM) | 0.001251
AQMQGPYNFIQDSM(averaged) A1D (DQMQGPYNFIQDSM) | 0.01051
AQMQGPYNFIQDSM(averaged) S13N (AQMQGPYNFIQDNM) | 0.02537
AQMQGPYNFIQDSM(averaged) N8N | 0.08785

Substance | DMS position-specific score (PSSM value) per amino-acid substitution, averaged
AQMQGPYNFIQDSM(averaged) M14H (AQMQGPYNFIQDSH) | 0.004419
AQMQGPYNFIQDSM(averaged) A1M (MQMQGPYNFIQDSM) | 0.03265
AQMQGPYNFIQDSM(averaged) G5T (AQMQTPYNFIQDSM) | 0.007904
AQMQGPYNFIQDSM(averaged) M3W (AQWQGPYNFIQDSM) | 0.07564
AQMQGPYNFIQDSM(averaged) M3Q (AQQQGPYNFIQDSM) | 0.0638
AQMQGPYNFIQDSM(averaged) P6M (AQMQGMYNFIQDSM) | 0.05352
AQMQGPYNFIQDSM(averaged) M3G (AQGQGPYNFIQDSM) | 0.02919
AQMQGPYNFIQDSM(averaged) S13E (AQMQGPYNFIQDEM) | 0.01271
AQMQGPYNFIQDSM(averaged) Y7E (AQMQGPENFIQDSM) | 0.0001172
AQMQGPYNFIQDSM(averaged) D12L (AQMQGPYNFIQLSM) | 0.008174
AQMQGPYNFIQDSM(averaged) F9R (AQMQGPYNRIQDSM) | 0
AQMQGPYNFIQDSM(averaged) Q2F (AFMQGPYNFIQDSM) | 0.3525
AQMQGPYNFIQDSM(averaged) Q4R (AQMRGPYNFIQDSM) | 0.00079
AQMQGPYNFIQDSM(averaged) Q11Q | 0.3738
AQMQGPYNFIQDSM(averaged) P6P | 0.3942
AQMQGPYNFIQDSM(averaged) P6L (AQMQGLYNFIQDSM) | 0.02822
